According to US20030148264A1, “Phage displayed PDZ domain ligands” (GENENTECH, INC., priority 2001, published 2003):
Where two headings read alike, the source gives them in different places. Where a SMILES comes first, the peptide text is derived from it. Where no end group is shown, it is not given here.

How the values were obtained:
MAGI 3 PDZ2 = target: T1, MAGI 3 PDZ2 (Homo sapiens, UniProt Q5TCQ9); assay: Competition ELISA, peptide blocking PDZ domain binding to immobilized peptide; design: made in house; host or cells: E. coli
T1 sequence (Q5TCQ9 584-707 isoform Q5TCQ9-2): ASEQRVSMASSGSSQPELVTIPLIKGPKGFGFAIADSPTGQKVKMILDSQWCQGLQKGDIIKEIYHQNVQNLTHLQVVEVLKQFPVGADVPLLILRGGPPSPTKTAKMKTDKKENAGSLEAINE
Text: (§1) Many methods are known and can be used to identify the binding affinities of PDZ domain binding ligands (e.g. peptides, proteins, small mollecules, etc.); for example, binding affinities can be determined as IC50 values using competition ELISAs. The IC50 value is defined as the concentration of ligand which blocks 50% of PDZ domain binding to a ligand. For example, in solid phase assays, assay plates may be prepared by coating microwell plates (preferably treated to efficiently absorb protein) with neutravidin, avidin or streptavidin. Non-specific binding sites are then blocked through addition of a solution of bovine serum albumin (BSA) or other proteins (for example, nonfat milk) and then washed, preferably with a buffer containing a detergent, such as Tween-20. A biotinylated known PDZ-domain ligand (for example, the phage peptides or cognate protein as fusions with GST or other such molecule to facilitate purification and detection) is prepared and bound to the plate. Serial delutions of the ligand to be tested with a PDZ domain polypeptide arc prepared and contacted with the bound ligand. The plate coated with the immobilized ligandis washed before adding each binding reaction to the wells and briefly incubated. After further washing, the binding reactions are detected, often with an antibody recognizing the non-PDZ fusion partner and a labeled (such as horseradish peroxidase (HRP), alkaline phosphatase (AP), or a fluorescent tag such as fluorescein) secondary antibody recognizing the primary antibody. The plates are then developed with the appropriate substrate (depending on the label) and the signal quantified, such as using a spectrophotometric plate reader. The absorption signal may be fit to a binding curve using a least squares fit. Thus the ability of the various ligands to inhibit PDZ domain from binding a known PDZ-domain ligand can be measured.
Prokaryotic: The ERBIN PDZ domain (aa. 1217-1371 of SEQ ID NO:201) or MAGI-3 PDZ 2 (aa. 584-707 of SEQ ID NO:200) were cloned into the EcoR 1/Not 1 or BamH 1/Not 1 sites of pGEX 6P-1 and pGEX 4T-3 E. coli expression vectors (Pharmacia) respectively. Expression and affinity purification of E coli expressed GST-proteins was performed as recommended by the manufacturer (Pharmacia).
(§2) Peptides corresponding to the selected sequences were synthesized and assayed for binding (Table 2). […] The data also confirmed that the minimal tetrapeptide selectants from the PDZ2 sort bind PDZ2 with high affinity. […] It appears that this large difference in binding affinity is attributable to the residue at P(−1), which is a Trp in the selected peptide as opposed to a Lys in PTEN/MMAC (compare HTQITWV with HTQITKV (SEQ ID NO:220), Table 2; The IC50 values are the concentrations of peptide that blocked 50% of PDZ domain binding to immobilized peptide in an ELISA).

Erbin PDZ = target: T2, Erbin PDZ (Homo sapiens, UniProt Q96RT1); assay: IC50 (nM) | Erbin PDZ | 2 nM | PDZ501 | Bio-Ac-GGWETWV (SEQ ID NO 687) | 37 nM
T2 construct: made in house; host or cells: E. coli
T2 sequence (Q96RT1 1258-1412): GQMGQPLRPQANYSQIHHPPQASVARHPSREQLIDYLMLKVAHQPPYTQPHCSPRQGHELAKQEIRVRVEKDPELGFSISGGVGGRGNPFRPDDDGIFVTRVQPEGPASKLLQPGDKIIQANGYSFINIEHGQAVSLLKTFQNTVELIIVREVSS
Experimental: (§3) Table printed on a drawing sheet, Fig. 12
(§4) The patent's description of the figure: FIG. 12. IC50 values indicating binding affinities of various peptides to PDZ domains
(§5) First copying reader's note: The first column (three lines per block: protein, accession, PDZ domain) is treated as one cell spanning its block; an empty ruled row above the IC50/SD head is left out; #### cells are spreadsheet overflow marks as printed; several heads and cells are cut off at the left by the print (ample, eptide No, EQ ID NO).
Where the first naming reader finds the target: head: IC50 (nM) | Erbin PDZ | 2 nM | PDZ501

Magi1 PDZ3 = assay: IC50 (nM) | Magi1 PDZ3 | 0.625 nM | B01-87 | Bio-GGWFLDV (SEQ ID NO 686) | 15.62 nM
Experimental: as §3
Head of the field: IC50 (nM) | Magi1 PDZ3 | 0.625 nM | B01-87 | Bio-GGWFLDV (SEQ ID NO 686) | 15.62 nM
as §4, §5
Where the first naming reader finds the target: head: IC50 (nM) | Magi1 PDZ3 | 0.625 nM | B01-87

[1] = target: GST-MAGI-3 PDZ 2 (aa. 584-707 of SEQ ID NO:200) (human) [GST: P08515]; assay: alanine scan, competition ELISA
GST-MAGI-3 PDZ 2 (aa. 584-707 of SEQ ID NO:200) (human) [GST: P08515], sequence (P08515 whole entry, the tested form may be a part): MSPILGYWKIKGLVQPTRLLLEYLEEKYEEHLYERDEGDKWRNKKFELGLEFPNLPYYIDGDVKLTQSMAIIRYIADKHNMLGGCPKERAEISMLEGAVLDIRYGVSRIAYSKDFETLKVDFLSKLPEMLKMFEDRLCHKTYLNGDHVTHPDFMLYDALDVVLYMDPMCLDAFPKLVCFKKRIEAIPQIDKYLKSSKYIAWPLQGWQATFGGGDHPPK

[2] = target: GST-MAGI-3 PDZ 2 (aa. 584-707 of SEQ ID NO:200) (human) [GST: P08515]; assay: competition ELISA: peptide blocks GST-PDZ binding to immobilized peptide
[3] = target: T3, Human Scribble (KIAA0147, NP_056171.1) PDZ2 (aa 788-913) (Homo sapiens, UniProt Q14160); assay: Carboxyl-terminal phage display binding selection; conditions: number of phage-selected clones with this sequence, siblings counted as individuals
T3 construct: Human Scribble (KIAA0147, NP_056171.1) PDZ2 (aa 788-913); GST; made in house
T3 sequence (Q14160 788-913 isoform Q14160-2): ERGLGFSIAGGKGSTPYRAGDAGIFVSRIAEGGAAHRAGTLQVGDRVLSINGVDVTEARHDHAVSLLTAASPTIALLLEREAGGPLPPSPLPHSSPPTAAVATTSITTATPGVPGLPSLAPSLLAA
Text: Phage display technology was further employed essentially as described above, with minor modifications, to select ligands of a variety of PDZ domains (including additional, independent rounds of selection for ERBIN PDZ and MAGI3 PDZ3). Briefly, peptide ligands were selected from pools of randomized peptides. […] The peptides were fused to the M13 phage major coat proteins such that the C-termini of the randomized peptides were free and available for binding. PDZ domains were utilized as their GST-fusions (referred to in this Example simply as “PDZ domains”). The particular amino acids comprising each PDZ domain target are indicated in the heading of Tables 11-29.
Peptide ligands were selected and identified for 17 (18 including ERBIN) PDZ domains. […] At the bottom of each table, the occurrence of each amino acid residue is expressed as a percentage of the total number of residues in the relevant position. Siblings (peptides with identical DNA that appear as more than one copy) were counted as individuals. The numbers for occurrence were corrected for codon usage. The relative codon usage is indicated after each amino acid in the header of the bottom section of each table. “n” refers to the number of sequences (siblings counted as individuals) on which the occurrence value is based; this number is also shown as normalized with respect to codon usage.

MAGI 3 PDZ3 = target: T4, MAGI 3 PDZ3 (Homo sapiens, UniProt Q5TCQ9); assay: Competition ELISA, peptide blocking PDZ domain binding to immobilized peptide
T4 construct: PDZ2 and PDZ3 were purified as glutathione S-transferase (GST) fusions from E coli; GST; made in house; host or cells: E. coli
T4 sequence (Q5TCQ9 726-808 limits assumed): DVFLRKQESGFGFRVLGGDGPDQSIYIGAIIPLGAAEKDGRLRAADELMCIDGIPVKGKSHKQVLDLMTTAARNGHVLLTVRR
Text: as §1, §2

hZO1 PDZ1 [4] = target: T5, hZO1 PDZ1 (Homo sapiens, UniProt Q07157); assay: IC50 (nM) | hZO1 PDZ1 | 5 nM | B01-88 | Bio-GGWRWTTWL (SEQ ID NO: 684) | 36 nM
T5 construct: Human ZO1 (NM_003257) PDZ1; GST; made in house
T5 sequence (Q07157 23-110): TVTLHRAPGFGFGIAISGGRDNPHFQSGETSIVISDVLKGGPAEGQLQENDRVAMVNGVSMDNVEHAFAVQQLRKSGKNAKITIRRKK
Experimental: Table printed on a drawing sheet, FIG. 12A
Head of the field: IC50 (nM) | hZO1 PDZ1 | 5 nM | B01-88 | Bio-GGWRWTTWL (SEQ ID NO: 684) | 36 nM
as §4
First copying reader's note: Upper left part of a table split over FIG. 12A-12D; further receptor columns and further peptides are on the other sheets.
(§6) Where the first naming reader finds the target: head: IC50 (nM) | hZO1 PDZ1 | 5 nM | B01-88

hZO1 PDZ1 [5] = target: T5, hZO1 PDZ1; assay: IC50 (nM) | hZO1 PDZ1 | 5 nM | B01-88 | Bio-GGWRWTTWL (SEQ ID NO 684) | 36 nM
Experimental: as §3
Head of the field: IC50 (nM) | hZO1 PDZ1 | 5 nM | B01-88 | Bio-GGWRWTTWL (SEQ ID NO 684) | 36 nM
as §4, §5, §6

[6] = MAGI 3 PDZ2, concentration of peptide that blocked 50% of PDZ domain binding to immobilized peptide in an ELISA, read-out: IC50 (μM) PDZ2
[7] = MAGI 3 PDZ3, concentration of peptide that blocked 50% of PDZ domain binding to immobilized peptide in an ELISA, read-out: IC50 (μM) PDZ3

For GCGCSWV, the IC50 (MAGI 3 PDZ2; [6]) was 2 µM.
Molecule “Ac-WFLWI [34 | 01-12, SEQ ID NO 673 NAC-WFLWI]” has an IC50 (Erbin PDZ) greater than 400000 nM and an IC50 (Magi1 PDZ3) of 34700 nM.
ASWV (peptide) showed a fold reduction in binding against CSWV [1] of 25 fold and an IC50 [2] of 35 µM.
“LTVRETWV [phage-selected peptide, Scribble PDZ2]” was tested, and the occurence [3] was 4.
CSAV (peptide) showed a fold reduction in binding against CSWV [1] greater than 100 fold and an IC50 [2] of 200 µM.
Work on “AWFETWV [phage-selected peptide, Scribble PDZ2]” yielded an occurence [3] of 2.
In the case of “AWFDTDL [2 | 01-61, SEQ ID NO 641 AWFDTDL]”, the IC50 (Erbin PDZ) is reported as 25400 nM and the IC50 (Magi1 PDZ3) is reported as 18200 nM.
Molecule “ESVRGFDTWV [phage-selected peptide, Scribble PDZ2]” has an occurence [3] of 1.
“STGKFFDTWV [phage-selected peptide, Scribble PDZ2]” showed an occurence [3] of 1.
HTQITWV [HTQITWV] showed an IC50 (MAGI 3 PDZ2; [6]) of 0.3 µM.
“HRVRETWV [phage-selected peptide, Scribble PDZ2]” gave an occurence [3] of 21.
Molecule TRWWFDI-OH [TRWWFDI] has an IC50 (MAGI 3 PDZ3; [7]) of 0.9 µM and an IC50 (MAGI 3 PDZ2; [6]) greater than 1000 µM.
TRWWFDI-NH2 [TRWWFDI-NH2] gave an IC50 (MAGI 3 PDZ3; [7]) of 300 µM.
In the case of “Ac-FETWL [3 | 01-08, SEQ ID NO: 642: N^AC-FETWL]”, the IC50 (hZO1 PDZ1 [4]) is reported as 10400 nM.
With “Ac-WFLDA [42 | 01-22, SEQ ID NO 681 NAC-WFLDA]” the IC50 (hZO1 PDZ1 [5]) was 21800 nM and the IC50 (Magi1 PDZ3) was 410 ± 72 nM.
For CC[C@H](C)[C@H](N)C(=O)N[C@H](C(=O)N[C@@H](CCCCN)C(=O)N[C@H](C(=O)O)C(C)C)[C@@H](C)O [ITKV, reference compound] (H-ITKV-OH; N-terminus and C-terminus assumed), the IC50 (MAGI 3 PDZ2; MAGI 3 PDZ2 domain, read-out: IC50) was 200 µM.
For DGICSWV [DGICSWV], the IC50 (MAGI 3 PDZ3) was greater than 1000 µM and the IC50 (MAGI 3 PDZ2) was 0.3 µM.
With HTQITKV [HTQITKV, reference compound] the IC50 (MAGI 3 PDZ3; [7]) was greater than 1000 µM and the IC50 (MAGI 3 PDZ2; [6]) was 200 µM.
